This is an account of results in patent publication EP4624497A1, “PHOSPHOEN[…] PROBE, PREPARATION METHOD THEREFOR AND APPLICATION THEREOF” (priority 2022, dated 2024).

The structures appear in SMILES notation.

Holding throughout (assay): phosphoenolpyruvate titration of purified optical probe (fluorescence ratio)
Common to all, as to assay type: binding
Common to all, as to conditions: phosphoenolpyruvate 0 to 10 mM, purified probe treated 10 minutes, ex 420/485 nm, em 528 nm

The target in assay [1] is T1, Thermus thermophilus TtPFK optical probe 254/256-TtPFK-cpYFP variant, TtPFK L320F/I253Q/Q254L/G256V/G257L, cpYFP Y1T/N246F (Thermus thermophilus, UniProt P21777, form not given/G256V/G257L/I253Q/L320F/Q254L).
T1 construct: the numbering corresponds to the full length of the phosphoenolpyruvate-sensitive polypeptide; His-tag; made in house; host or cells: E. coli BL21 (DE3), pCDF vector
Here is the method: (§1) • 1. The expression vectors (for example, a phosphoenolpyruvate optical probe expression vector based on pCDF.) were transformed into BL21 (DE3) cells, incubated inverted overnight, and the clones were picked from the plates into 250 mL Erlenmeyer flasks, placed in a shaker at 37 °C and incubated at 220 rpm to OD=0.4-0.8, then 1/1000 (V/V) of IPTG (1 M) was added to induce expression at 18 °C for 24-36 hours. • 2. Upon completion of inducible expression, cells were harvested by centrifugation at 4000 rpm for 30 min, resuspended in 50 mM phosphate buffer and disrupted ultrasonically until the broth were clear, centrifuged at 9600 rpm at 4 °C for 20 min. • 3. The centrifuged supernatant was used to obtain protein by purification through a self-packed nickel column affinity chromatography column, and the protein obtained after nickel column affinity chromatography was further used to obtain protein dissolved in 100 mM HEPES buffer (pH 7.4). • 4. After purified proteins were subjected to SDS-PAGE, probes were diluted to a protein solution having a final concentration of 0.2-5 µM using assay buffer (100 mm HEPES, 100 mM NaCl, pH 7.4). Phosphoenolpyruvate was formulated as a stock solution at a final concentration of 50 mM with the assay buffer (100 mM HEPES, 100 mM NaCl, pH 7.4). • 5. 100 µl 1 µM of protein solution was taken, incubated at 37 °C for 10 min, phosphoenolpyruvate was added for titration, and the fluorescence intensity of 528 nm emission after 420 nm and 485 nm fluorescence excitation of the protein was measured. The fluorescence excitation and emission determination of the samples were done using a multifunctional fluorescence microplate reader. • 6. 100 µl 1 µM of protein solution was taken, incubated at 37 °C for 10 min, and phosphoenolpyruvate was added to determine the absorption and fluorescence spectra of the proteins. Determination of the absorption and fluorescence spectra of the samples was done by spectrophotometer and spectrofluorometer.
(§2) For the 254/255-TtPFK-cpYFP obtained in Example 2 and the 254/255-TtPFK-I253G/Q254L/R255L/G256F-cpYFP-Y1P, 254/255-TtPFK-I253K/Q254L/R255L/G256F-cpYFP-Y1S and 254/256-TtPFK-I253Q/Q254L/G256V/G257L-cpYFP-Y1T/N246F optical probes obtained in Example 6, amino acid were mutated at positions R21, R25, V54, R55, V57, A58, N59, I60, I61, R155, G186, R212, G213, K214, K215, S216 and L320 in the phosphoenolpyruvate binding pocket, and at positions R72, R163, R172 and R246 in the ATP binding pocket to adjust the affinity of the phosphoenolpyruvate optical probe to phosphoenolpyruvate and the substrate specificity. The probes were linearized by reverse PCR, and the sequences of the mutation sites were introduced into the primers. The obtained PCR products were subjected to homologous recombination to obtain plasmids containing the above site mutations. The mutant plasmids were transformed into BL21 (DE3) for induced expression, and the mutant probe proteins were purified for the phosphoenolpyruvate response test. The detection signal of the fusion fluorescent protein containing 2 mM phosphoenolpyruvate was divided by the detection signal of the fusion fluorescent protein without phosphoenolpyruvate. […]

For assay [2], the target named is T2, Thermus thermophilus TtPFK optical probe 254/256-TtPFK-cpYFP variant, TtPFK S216L/I253Q/Q254L/G256V/G257L, cpYFP Y1T/N246F (Thermus thermophilus, UniProt P21777, form not given/G256V/G257L/I253Q/Q254L/S216L).
T2 construct: the numbering corresponds to the full length of the phosphoenolpyruvate-sensitive polypeptide; His-tag; made in house; host or cells: E. coli BL21 (DE3), pCDF vector
As to the method: as §1, §2

Assay [3] addresses T3, Thermus thermophilus TtPFK optical probe 254/256-TtPFK-cpYFP variant, TtPFK R212M/I253Q/Q254L/G256V/G257L, cpYFP Y1T/N246F (Thermus thermophilus, UniProt P21777, form not given/G256V/G257L/I253Q/Q254L/R212M).
T3 construct: the numbering corresponds to the full length of the phosphoenolpyruvate-sensitive polypeptide; His-tag; made in house; host or cells: E. coli BL21 (DE3)
As to the method: as §1, §2

Assay [4] deals with T4, Thermus thermophilus TtPFK optical probe 254/255-TtPFK-cpYFP variant, TtPFK V54K/I253K/Q254L/R255L/G256F, cpYFP Y1S (Thermus thermophilus, UniProt P21777, form not given/G256F/I253K/Q254L/R255L/V54K).
T4 construct: the numbering corresponds to the full length of the phosphoenolpyruvate-sensitive polypeptide; His-tag; made in house; host or cells: E. coli BL21 (DE3)
Here is the method:
as §1, §2

Assay [5] deals with T5, Thermus thermophilus TtPFK optical probe 254/255-TtPFK-cpYFP variant, TtPFK V54Q/I253K/Q254L/R255L/G256F, cpYFP Y1S (Thermus thermophilus, UniProt P21777, form not given/G256F/I253K/Q254L/R255L/V54Q).
T5 construct: His-tag; made in house; host or cells: E. coli BL21 (DE3)
Here is the method: as §1, §2

Assay [6] deals with T6, Thermus thermophilus TtPFK optical probe 254/255-TtPFK-cpYFP variant, TtPFK V54Q/I253G/Q254L/R255L/G256F, cpYFP Y1P (Thermus thermophilus, UniProt P21777, form not given/G256F/I253G/Q254L/R255L/V54Q).
T6 construct: the numbering corresponds to the full length of the phosphoenolpyruvate-sensitive polypeptide; His-tag; made in house; host or cells: E. coli BL21 (DE3)
As to the method:
as §1, §2

Assay [7] has as its target T7, Thermus thermophilus TtPFK optical probe 254/256-TtPFK-cpYFP variant, TtPFK K215E/I253Q/Q254L/G256V/G257L, cpYFP Y1T/N246F (Thermus thermophilus, UniProt P21777, form not given/G256V/G257L/I253Q/K215E/Q254L).
T7 construct: the numbering corresponds to the full length of the phosphoenolpyruvate-sensitive polypeptide; His-tag; made in house; host or cells: E. coli BL21 (DE3), pCDF vector
Here is the method:
as §1, §2

Assay [8] addresses T8, Thermus thermophilus TtPFK optical probe 254/256-TtPFK-cpYFP variant, TtPFK S216Y/I253Q/Q254L/G256V/G257L, cpYFP Y1T/N246F (Thermus thermophilus, UniProt P21777, form not given/G256V/G257L/I253Q/Q254L/S216Y).
T8 construct: His-tag; made in house; host or cells: E. coli BL21 (DE3), pCDF vector
As to the method: as §1, §2

What is called Kd is the equilibrium constant for the complex coming apart.

T8 sequence (P21777 other isoform, or with tags, fused parts or gaps S216Y, form open): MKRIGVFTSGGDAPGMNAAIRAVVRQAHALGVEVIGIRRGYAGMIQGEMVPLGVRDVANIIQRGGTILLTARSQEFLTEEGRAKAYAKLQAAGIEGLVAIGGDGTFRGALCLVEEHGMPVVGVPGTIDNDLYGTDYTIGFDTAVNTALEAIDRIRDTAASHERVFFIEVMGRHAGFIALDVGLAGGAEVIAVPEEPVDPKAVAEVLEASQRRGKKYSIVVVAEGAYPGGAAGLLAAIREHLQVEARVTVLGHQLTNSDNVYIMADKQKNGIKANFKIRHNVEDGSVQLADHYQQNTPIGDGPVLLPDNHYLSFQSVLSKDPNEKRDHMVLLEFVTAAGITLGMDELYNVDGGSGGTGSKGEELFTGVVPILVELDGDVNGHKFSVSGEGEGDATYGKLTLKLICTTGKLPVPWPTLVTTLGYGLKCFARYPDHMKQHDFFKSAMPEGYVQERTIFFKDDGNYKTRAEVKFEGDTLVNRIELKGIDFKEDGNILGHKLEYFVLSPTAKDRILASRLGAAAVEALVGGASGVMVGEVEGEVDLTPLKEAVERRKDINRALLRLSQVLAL
T3 sequence (P21777 other isoform, or with tags, fused parts or gaps R212M, form open): as the sequence (P21777 other isoform, or with tags, fused parts or gaps S216Y, form open) above, with R212M, Y216S counted along it
T7 sequence (P21777 other isoform, or with tags, fused parts or gaps K215E, form open): as the sequence (P21777 other isoform, or with tags, fused parts or gaps S216Y, form open) above, with K215E, Y216S counted along it
T5 sequence (P21777 other isoform, or with tags, fused parts or gaps V54Q, form open): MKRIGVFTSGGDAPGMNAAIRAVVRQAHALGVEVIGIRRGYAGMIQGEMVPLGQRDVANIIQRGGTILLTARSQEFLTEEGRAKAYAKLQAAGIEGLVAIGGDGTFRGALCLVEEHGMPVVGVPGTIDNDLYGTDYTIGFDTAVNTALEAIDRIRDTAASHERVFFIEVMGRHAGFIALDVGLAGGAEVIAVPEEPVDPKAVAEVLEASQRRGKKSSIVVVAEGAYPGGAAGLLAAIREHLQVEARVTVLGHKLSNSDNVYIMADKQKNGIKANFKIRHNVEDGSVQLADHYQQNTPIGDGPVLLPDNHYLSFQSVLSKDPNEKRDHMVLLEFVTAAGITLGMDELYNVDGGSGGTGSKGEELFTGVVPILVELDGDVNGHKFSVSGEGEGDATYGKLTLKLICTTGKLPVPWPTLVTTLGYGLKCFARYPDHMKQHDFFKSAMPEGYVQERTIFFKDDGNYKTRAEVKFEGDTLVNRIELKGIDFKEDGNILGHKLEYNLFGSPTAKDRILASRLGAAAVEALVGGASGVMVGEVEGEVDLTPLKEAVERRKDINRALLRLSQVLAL
T6 sequence (P21777 other isoform, or with tags, fused parts or gaps V54Q, form open): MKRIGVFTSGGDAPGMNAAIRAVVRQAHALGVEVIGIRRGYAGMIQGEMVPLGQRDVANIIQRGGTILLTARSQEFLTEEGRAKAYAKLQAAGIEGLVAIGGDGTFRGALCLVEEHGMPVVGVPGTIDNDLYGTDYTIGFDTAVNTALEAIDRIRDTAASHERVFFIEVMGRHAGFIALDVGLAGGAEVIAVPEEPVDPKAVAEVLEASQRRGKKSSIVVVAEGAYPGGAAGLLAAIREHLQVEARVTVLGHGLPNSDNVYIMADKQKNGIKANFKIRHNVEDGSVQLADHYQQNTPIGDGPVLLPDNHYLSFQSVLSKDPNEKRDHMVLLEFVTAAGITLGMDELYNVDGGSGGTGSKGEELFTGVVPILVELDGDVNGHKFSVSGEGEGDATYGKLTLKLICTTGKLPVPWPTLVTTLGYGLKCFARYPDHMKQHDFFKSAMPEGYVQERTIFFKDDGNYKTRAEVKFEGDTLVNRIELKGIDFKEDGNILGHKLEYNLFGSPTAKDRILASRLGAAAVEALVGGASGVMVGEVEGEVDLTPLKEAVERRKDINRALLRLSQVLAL
T4 sequence (P21777 other isoform, or with tags, fused parts or gaps V54K, form open): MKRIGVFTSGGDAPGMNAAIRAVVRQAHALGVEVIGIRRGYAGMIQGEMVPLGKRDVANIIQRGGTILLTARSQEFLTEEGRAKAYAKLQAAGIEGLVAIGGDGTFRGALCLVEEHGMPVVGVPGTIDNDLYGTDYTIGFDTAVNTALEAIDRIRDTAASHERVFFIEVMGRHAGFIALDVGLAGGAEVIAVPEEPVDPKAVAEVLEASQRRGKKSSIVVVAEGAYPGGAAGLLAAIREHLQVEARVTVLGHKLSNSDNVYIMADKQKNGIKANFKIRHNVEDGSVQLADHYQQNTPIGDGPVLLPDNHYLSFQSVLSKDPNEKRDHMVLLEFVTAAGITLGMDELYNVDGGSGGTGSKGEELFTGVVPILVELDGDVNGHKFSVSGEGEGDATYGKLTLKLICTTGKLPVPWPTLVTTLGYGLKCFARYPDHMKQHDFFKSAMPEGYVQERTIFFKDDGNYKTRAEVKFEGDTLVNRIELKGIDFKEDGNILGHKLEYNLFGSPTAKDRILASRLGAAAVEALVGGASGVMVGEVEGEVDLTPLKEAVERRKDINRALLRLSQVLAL
T1 sequence (P21777 other isoform, or with tags, fused parts or gaps, stated change not applied): as the sequence (P21777 other isoform, or with tags, fused parts or gaps S216Y, form open) above, with Y216S, L565F counted along it
T2 sequence (P21777 other isoform, or with tags, fused parts or gaps S216L, form open): as the sequence (P21777 other isoform, or with tags, fused parts or gaps S216Y, form open) above, with Y216L counted along it

As for `C=C(OP(=O)(O)O)C(=O)O` [phosphoenolpyruvate, Phosphoenolpyruvate], the dissociation constant Kd in assay [1] came to 1770 µM; in assay [2], 1.39 µM; in assay [3], 714 µM; in assay [4], 129 µM; in assay [5], 328 µM; in assay [6] it was 769 µM. In addition, the Kd was found to be 249 µM in assay [7] and 2.36 µM in assay [8].
